Assay results from ChEMBL document CHEMBL5029159, “Reduction of Progranulin-Induced Breast Cancer Stem Cell Propagation by Sortilin-Targeting Cyclotriazadisulfonamide (CADA) Compounds” (J Med Chem, 2021).
Calls of active or inactive are those of the source. No cut-off for these calls is given here.

Legend:
[1] = system: HEK-293T; assay: (§1) Cytotoxicity against human HEK293T cells assessed as reduction in cell viability after 72 hrs by alamar blue assay; format: cell-based; details: hek-293t, 72 h
[2] = Kinetic solubility of compound at pH 7.4 PBS buffer incubated for 30 mins by nephelometry; format: physicochemical; details: for Kinetic_solubility: buffer, pH 7.4, 0.5 h; for solubility kinetic at 0.5 h: PBS buffer, pH 7.4, read-out: Kinetic_solubility
[3] = system: MDA-MB-231; assay: Inhibition of mammosphere-forming capacity in ER-negative human MDA-MB-231 cells assessed inhibition of as progranulin-induced mammosphere formation at 1 uM measured after 48 hrs by microscopy; format: functional, cell-based
[4] = system: MCF7; assay: Inhibition of mammosphere-forming capacity in ER-positive human MCF7 cells assessed as inhibition of progranulin-induced mammosphere formation at 4 uM measured after 48 hrs by microscopy; format: functional, cell-based
[5] = system: MCF7; assay: Effect on mammosphere-forming capacity in ER-positive human MCF7 cells measured after 48 hrs by microscopy; format: functional, cell-based
[6] = system: HEK-293T; assay: Down modulation of sortilin expression in HEK293T cells tranfected with GFP-tagged sortilin incubated for 24 hrs by flow cytometric analysis; format: functional, cell-based; details: Homo sapiens
[7] = system: MDA-MB-231; assay: Effect on mammosphere-forming capacity in ER-negative human MDA-MB-231 cells measured after 48 hrs by microscopy; format: functional, cell-based
[8] = Therapeutic index, ratio of CC50 for cytotoxicity against human HEK293T cells to ratio of IC50 for Down modulation of sortilin expression in HEK293T cells tranfected with GFP-tagged sortilin incubated for 24 hrs by flow cytometric analysis; format: toxicity, cell-based; details: read-out: TI
[9] = system: MDA-MB-231; assay: Inhibition of mammosphere-forming capacity in ER-negative human MDA-MB-231 cells assessed as inhibition of progranulin-induced mammosphere formation at 4 uM measured after 48 hrs by microscopy; format: functional, cell-based
[10] = system: MDA-MB-231; assay: Down modulation of sortilin expression in ERalpha-negative human MDA-MB-231 cells incubated for 48 hrs by Western blot analysis; format: ADME, cell-based; details: mda-mb-231, 48 h
[11] = system: MDA-MB-231; assay: Cytotoxicity against human MDA-MB-231 cells assessed as reduction in cell viability after 48 hrs by alamar blue assay; format: functional, cell-based
[12] = system: MCF7; assay: Down modulation of sortilin expression in ERalpha-positive human MCF7 cells incubated for 48 hrs by Western blot analysis; format: ADME, cell-based; details: mcf7, 48 h
[13] = system: MCF7; assay: Cytotoxicity against human MCF7 cells assessed as reduction in cell viability after 48 hrs by alamar blue assay; format: functional, cell-based
[14] = system: MCF7; assay: Inhibition of mammosphere-forming capacity in ER-positive human MCF7 cells assessed as inhibition of progranulin-induced mammosphere formation at 1 uM measured after 48 hrs by microscopy; format: functional, cell-based
[15] = as §1; format: cell-based, HEK-293T; details: HEK293T cells

Kinetic_solubility [2] [µM]	Activity [10]	Activity [12]	solubility kinetic at 0.5 h [2] [µM]	SMILES	CC50 [1] [µM]	inhibition [3]	inhibition [4]	Activity [5]	IC50 [6] [nM]	Activity [7]	selectivity ratio at 24 h [8]	inhibition [9]	Activity [11]	Activity [13]	inhibition [14]	CC50 at 72 h [15] [µM]
59	–	–	–	C=C1CN(S(=O)(=O)c2ccc(C)cc2)CCCN(CC2CCCCC2)CCCN(S(=O)(=O)c2ccc(OCCO)cc2)C1.Cl	15	Active	Active	inactive	9000	inactive	1.7	Active	–	–	–	–
56	Active	Dose-Dependent Effect	–	C=C1CN(S(=O)(=O)c2ccc(OC)cc2)CCCN(CC2CCCCC2)CCCN(S(=O)(=O)c2ccc(N(C)C)cc2)C1.Cl	1	Active	–	inactive	100	inactive	10	–	inactive	inactive	Active	–
–	–	–	43	C=C1CN(S(=O)(=O)c2ccc(C)cc2)CCCN(Cc2ccccc2)CCCN(S(=O)(=O)c2ccc(C)cc2)C1.Cl [CYCLOTRIAZADISULFONAMIDE HYDROCHLORIDE]	> 50	–	–	inactive	2200	inactive	> 23	–	–	–	–	–

Further lines, the molecule ahead of its results:

SMILES	Kinetic_solubility [2] [µM]	Activity [10]	Activity [12]	solubility kinetic at 0.5 h [2] [µM]	CC50 [1] [µM]	inhibition [3]	inhibition [4]	Activity [5]	IC50 [6] [nM]	Activity [7]	selectivity ratio at 24 h [8]	inhibition [9]	Activity [11]	Activity [13]	inhibition [14]	CC50 at 72 h [15] [µM]
C=C1CN(S(=O)(=O)c2ccc(C)cc2)CCCN(CC2CCCCC2)CCCN(S(=O)(=O)c2ccc(OC)cc2)C1.Cl	57	–	–	–	1.4	–	–	inactive	500	inactive	2.8	–	–	–	–	–
C=C1CN(S(=O)(=O)c2ccc(N(C)C)cc2)CCCN(CC2CCCCC2)CCCN(S(=O)(=O)c2cccc3ccccc23)C1.Cl	60	Active	Dose-Dependent Effect	–	–	Active	–	inactive	1900	inactive	> 26	–	inactive	inactive	Active	> 50
C=C1CN(S(=O)(=O)c2ccc(C)cc2)CCc2cc(-c3ccccc3)cc(n2)CCN(S(=O)(=O)c2ccc(C)cc2)C1.Cl	–	–	–	61	> 50	Active	Active	inactive	4000	inactive	> 12.5	Active	–	–	–	–
C=C1CN(S(=O)(=O)c2ccc(C)cc2)CCCN(CCc2ccccc2)CCCN(S(=O)(=O)c2ccc(C)cc2)C1.Cl	55	Active	Dose-Dependent Effect	–	–	Active	–	inactive	1000	inactive	> 50	–	inactive	inactive	Active	50
